The text below walks through data of patent US20030072716A1, “Renewable, carbohydrate based CO2-philes” (priority 2001, published 2003).

The nature of series [1]: Deliquescence, swelling and dissolution in CO2 in a high-pressure view cell near room temperature. The format is physicochemical. To be noted: for solubility / miscibility in liquid CO2: BGLU at 23.0° C., 60.5 bar. From the text: The interaction of BGLU in carbon dioxide was examined in a high-pressure view cell. The BGLU was exposed to carbon dioxide at near room temperature and a pressure of from 35 to 40 bar.
The procedure according to Example 1 was repeated except that the carbon dioxide pressure was 55.9 bar. A solid to liquid transition (i.e., deliquescence) of the BGLU was observed. […] See FIG. 3, Panel (C) and FIG. 3, Panel (D). Upon reaching liquid-vapor equilibrium pressure, the liquid carbon dioxide formed a separate layer on top of the viscous melt containing carbon dioxide.
BGLU is a white solid that melts at 132° C. under atmospheric pressure conditions (FIG. 3, Panel (A)). However, as BGLU is exposed to CO2 near room temperature (23.0° C.) in a conventional high-pressure view cell, it absorbs CO2 and becomes “wetted” with CO2 at a pressure of 35-40 bar. The white solid appears as a salt does in a humid environment. Furthermore, at a gaseous CO2 pressure of 55.9 bar a solid-to-liquid transition (deliquescence) occurs (FIG. 3, Panel (B)). This is analogous to the deliquescence of hygroscopic materials absorbing atmospheric moisture. […] Upon reaching the liquid-vapor equilibrium pressure, the liquid CO2 forms a separate layer on top of the viscous melt containing CO2. However, the melt easily mixes with the upper layer of liquid CO2 on stirring and forms a single-phase liquid mixture in contact with the gaseous CO2 phase (FIG. 3, Panel (E)). Further addition of CO2 only dilutes this liquid phase (FIG. 3F). Although, CO2-induced swelling (Rover et al., (1999) Macromolecules 32: 8965-8973) and CO2-assisted melting point depression (Zhang & Handa, (1997) Macromolecules 30: 8505-8507.) have been reported in polymers by sorption of CO2 under high pressures, the materials are not readily miscible in liquid and supercritical CO2, indicating the lack of a significant attractive interaction.

Series [2] can be described thus: Solubility and cloud-point behaviour in supercritical CO2 at 40 °C. The format is physicochemical. Particulars: for miscibility with CO2 from cloud-point data: scCO2, 40.0° C., relatively low pressures, up to 30% (wt); for solubility behaviour in supercritical CO2: supercritical CO2, 40° C. As to the method:
The solubility of BGLU and AGLU in supercritical carbon dioxide were examined at 40° C. […] The behavior is illustrated in FIG. 3. At the cloud point pressure, phase separation commences between the supercritical carbon dioxide and the sugar ester melt. Upon lowering the pressure, the material reappears in the solid state (see FIG. 4).
The cloud-point pressures of these systems in scCO2 were examined at 40.0° C. As in the subcritical case, initially the solid melts and swells (for AGLU and BGLU) and all three peracetylated sugars readily go into a single-phase, scCO2 system. A plot of the cloud-point pressure versus the weight percent for AGLU, BGLU, and BGAL dissolved in supercritical CO2 at 40.0° C. is given in FIG. 4. At the cloud-point pressure, phase separation begins between scCO2 and the sugar ester. Upon lowering the pressure, the material reappears in the solid state. No cloud-point measurements were made above 30% (wt) due to limitations arising from the volume of the view cell and the rapid swelling of the sample in the cases of AGLU and BGLU.

Turning to `CC(=O)OC[C@H]1O[C@H](OC(C)=O)[C@H](OC(C)=O)[C@@H](OC(C)=O)[C@@H]1OC(C)=O` [AGLU, alpha 1,2,3,4,6-pentaacetyl-D-glucose], the “deliquescence point, amount lower than that of BGLU” value in series [1] (difference relative to BGLU) is on record as 6-7 bar. In series [2], the “miscibility with CO2 from cloud-point data” value is reported as “complete miscibility”; the “solubility behaviour in supercritical CO2” value is “melted, swelled, and readily dissolved”.
As for `CC(=O)OC[C@H]1O[C@@H](OC(C)=O)[C@H](OC(C)=O)[C@@H](OC(C)=O)[C@H]1OC(C)=O` [BGAL, beta 1,2,3,4,6-pentaacetyl β-D-galactose], in series [1] (contact with CO2), the “deliquescence in CO2” value is on record as “does not exhibit deliquescence”. The “solubility / miscibility in liquid CO2” value in series [1] is listed as “readily soluble”.
`CC(=O)OC[C@H]1O[C@@H](OC(C)=O)[C@H](OC(C)=O)[C@@H](OC(C)=O)[C@@H]1OC(C)=O` [BGLU, beta 1,2,3,4,6-pentaacetyl-D-glucose]: the “concentration in the CO2-induced melt” value in series [1] (approximate estimate, melt can be diluted with liquid or scCO2 in any proportion) is reported as “more than 80 wt %”. Moreover, the “swelling of the melt on CO2 absorption” value in series [1] (changes in gaseous CO2 pressure of only 2 and 3 bar above deliquescence pressure) was “swells to many times its original volume”. For the same compound, in series [1] (gaseous CO2, 23.0° C., high-pressure view cell), the “gaseous CO2 pressure at which solid-to-liquid transition (deliquescence) occurs” value is listed as 55.9 bar. For the same compound, the “solubility / miscibility in liquid CO2” value in series [1] is “complete miscibility”. For the same compound, the “CO2 pressure at which the solid absorbs CO2 and becomes wetted” value in series [1] (near room temperature (23.0° C.)) was 35-40 bar. For the same compound, in series [2], the “miscibility with CO2 from cloud-point data” value was “complete miscibility”; the “solubility behaviour in supercritical CO2” value is “melted, swelled, and readily dissolved”.
